≈ marks a conversion by molar mass, not a printed value. Counter-ions that a name gives are not always drawn. Like-named read-outs stand apart in the source and are kept apart here.
What was measured:
physchem = settings: water, Ratio of dissolution to water
[1] = Ratio of dissolution to water (water solubility)
A.calcoaceticus Ac-54 = assay: MIC by agar plate dilution method; format: cell-based
Procedure: (§1) In order to investigate the in vitro activity of the under-mentioned compounds against various bacteria, the minimal inhibitory concentration (MIC, µg/mℓ) values were determined by the agar plate dilution method (see Chemotherapy, 22, 1126-1128 (1974)]. The results are shown in Table 1.

E.coli NIHJ JC-2 = assay: MIC by agar plate dilution method; format: cell-based
Procedure: as §1

E.facalis ATCC-21212 = assay: MIC by agar plate dilution method; format: cell-based; settings: in vitro
Procedure: as §1

K.pneumoniae NCTC-9632 = assay: MIC by agar plate dilution method; format: cell-based
Procedure: as §1

M.morganii IID Kono = assay: MIC by agar plate dilution method; format: cell-based; settings: in vitro
Procedure: as §1

P.aeruginosa ATCC-10145 = assay: MIC by agar plate dilution method; format: cell-based
Procedure: as §1

P.aeruginosa E-2 = assay: MIC by agar plate dilution method; format: cell-based
Procedure: as §1

P.mirabilis ATCC-29906 = assay: MIC by agar plate dilution method; format: cell-based
Procedure: as §1

S.aureus FDA209P = assay: MIC by agar plate dilution method; format: cell-based; settings: in vitro
Procedure: as §1

S.marcoscons IFO-12648 = assay: MIC by agar plate dilution method; format: cell-based; settings: in vitro
Procedure: as §1

[2] = Acinetobacter calcoaceticus, AC54, in vitro, read-out: MIC
[3] = Escherichia coli, NIHJJC2, in vitro, read-out: MIC
[4] = Klebsiella pneumoniae, NCTC9632, in vitro, read-out: MIC
[5] = Morganella morganii, read-out: MIC
[6] = Pseudomonas aeruginosa, ATCC10145, in vitro, read-out: MIC
[7] = Pseudomonas aeruginosa, E2, in vitro, read-out: MIC
[8] = Proteus mirabilis, ATCC29906, in vitro, read-out: MIC
[9] = Staphylococcus aureus, FDA209P, read-out: MIC
[10] = Ratio of dissolution to water, at 20 °C

Compound	MIC (A.calcoaceticus Ac-54; [2]) [µg/mL]	MIC (E.coli NIHJ JC-2; [3]) [µg/mL]	MIC (E.facalis ATCC-21212; read-out: MIC) [µg/mL]	MIC (K.pneumoniae NCTC-9632; [4]) [µg/mL]	MIC (M.morganii IID Kono; [5]) [µg/mL]	MIC (P.aeruginosa ATCC-10145; [6]) [µg/mL]	MIC (P.aeruginosa E-2; [7]) [µg/mL]	MIC (P.mirabilis ATCC-29906; [8]) [µg/mL]	MIC (S.aureus FDA209P; [9]) [µg/mL]	MIC (S.marcoscons IFO-12648; read-out: MIC) [µg/mL]	other results
CC1Cc2c(N3CCN(C)CC3)c(F)cc3c(=O)c(C(=O)O)cn1c23.Cl (racemic) [Reference Example 3, (±)-8-fluoro-2-methyl-9-(4-methyl-1-piperazinyl)-6-oxo-1,2-dihydro-6H-pyrrolo[3,2,1-ij]quinoline-5-carboxylic acid hydrochloride, reference compound]	–	–	–	–	–	–	–	–	–	–	solubility (physchem): 12 mg/mL
CC1CN(c2c(F)cc3c(=O)c(C(=O)O)cn4c3c2CC4C)CC(C)N1.Cl (single isomer, unassigned; (+)) [Example 12, (+)-8-fluoro-2-methyl-9-(3,5-dimethyl-1-piperazinyl)-6-oxo-1,2-dihydro-6H-pyrrolo[3,2,1-ij]quinoline-5-carboxylic acid hydrochloride]	–	–	–	–	–	–	–	–	–	–	solubility [1]: 175 mg/mL
CC1CN(c2c(F)cc3c(=O)c(C(=O)O)cn4c3c2CC4C)CCN1.Cl (single isomer, unassigned; (+)) [Example 8, (+)-8-fluoro-2-methyl-9-(3-methyl-1-piperazinyl)-6-oxo-1,2-dihydro-6H-pyrrolo[3,2,1-ij]quinoline-5-carboxylic acid hydrochloride]	0.39	0.05	3.13	0.05	0.012	0.39	0.39	0.1	0.2	0.1	Ratio of dissolution to water: 385 mg/mL
CC1Cc2c(N3CCC(N)C3)c(F)cc3c(=O)c(C(=O)O)cn1c23.Cl (single isomer, unassigned; (+)) [Example 17 hydrochloride, (+)-8-fluoro-2-methyl-9-(3-amino-1-pyrrolidyl)-6-oxo-1,2-dihydro-6H-pyrrolo[3,2,1-ij]quinoline-5-carboxylic acid hydrochloride]	–	–	–	–	–	–	–	–	–	–	solubility (physchem): 158 mg/mL
CC1Cc2c(N3CCC(N)C3)c(F)cc3c(=O)c(C(=O)O)cn1c23 (single isomer, unassigned; (+)) [Example 17, (+)-8-fluoro-2-methyl-9-(3-amino-1-pyrrolidinyl)-6-oxo-1,2-dihydro-6H-pyrrolo[3,2,1-ij]quinoline-5-carboxylic acid]	0.39 (≈ 1.18 µM)	0.05 (≈ 0.151 µM)	3.13 (≈ 9.45 µM)	0.05 (≈ 0.151 µM)	0.024 (≈ 0.0724 µM)	0.39 (≈ 1.18 µM)	0.39 (≈ 1.18 µM)	0.1 (≈ 0.302 µM)	0.2 (≈ 0.604 µM)	0.1 (≈ 0.302 µM)	–
CC1CN(c2c(F)cc3c(=O)c(C(=O)O)cn4c3c2CC4C)CCN1 (single isomer, unassigned; (+)) [Example 20, (+)-8-fluoro-2-methyl-9-(3-methyl-1-piperazinyl)-6-oxo-1,2-dihydro-6H-pyrrolo[3,2,1-ij]quinoline-5-carboxylic acid]	–	–	–	–	–	–	–	–	–	–	solubility [1, 10]: 143 mg/mL
CC1CN(c2c(Cl)cc3c(=O)c(C(=O)O)cn4c3c2CC4C)CCN1.Cl (single isomer, unassigned; (+)) [Example 11, (+)-8-chloro-2-methyl-9-(3-methyl-1-piperazinyl)-6-oxo-1,2-dihydro-6H-pyrrolo[3,2,1-ij]quinoline-5-carboxylic acid hydrochloride]	0.78	0.1	6.25	0.1	0.024	0.78	0.78	0.2	0.39	0.2	solubility (physchem): 231 mg/mL
CC1Cc2c(N3CCN(C)CC3)c(F)cc3c(=O)c(C(=O)O)cn1c23 (racemic) [Test Compound E, 8-fluoro-2-methyl-9-(4-methyl-1-piperazinyl)-6-oxo-1,2-dihydro-6H-pyrrolo[3,2,1-ij]quinoline-5-carboxylic acid, reference compound]	0.2 (≈ 0.579 µM)	0.1 (≈ 0.29 µM)	1.56 (≈ 4.52 µM)	0.1 (≈ 0.29 µM)	0.1 (≈ 0.29 µM)	3.13 (≈ 9.06 µM)	1.56 (≈ 4.52 µM)	0.39 (≈ 1.13 µM)	0.2 (≈ 0.579 µM)	0.1 (≈ 0.29 µM)	–
CC(C)NCC1CCN(c2c(F)cc3c(=O)c(C(=O)O)cn4c3c2CC4C)C1 (single isomer, unassigned; (+)) [Example 19, (+)-8-fluoro-2-methyl-9-[3-(isopropylaminomethy 1-pyrrolidyl]-6-oxo-1,2-dihydro-6H-pyrrolo[3,2,1-ij]quinoline-5-carboxylic acid hydrochloride]	–	–	–	–	–	–	–	–	–	–	solubility [1, 10]: 135 mg/mL
CCNCC1CCN(c2c(F)cc3c(=O)c(C(=O)O)cn4c3c2CC4C)C1.Cl (single isomer, unassigned; (+)) [Example 18, (+)-8-fluoro-2-methyl-9-[3-(ethylaminomethyl)-1-pyrrolidinyl]-6-oxo-1,2-dihydro-6H-pyrrolo[3,2,1-ij]quinoline-5-carboxylic acid hydrochloride]	–	–	–	–	–	–	–	–	–	–	solubility [1]: 195 mg/mL
CC1Cc2c(N3CCN(C)CC3)c(F)cc3c(=O)c(C(=O)O)cn1c23 (single isomer, unassigned) [Example 7 hydrochloride]	–	–	–	–	–	–	–	–	–	–	solubility [1, 10]: 230 mg/mL
CC1Cc2c(N3CCN(C)CC3)c(F)cc3c(=O)c(C(=O)O)cn1c23 (single isomer, unassigned; (+)) [Example 7, (+)-8-fluoro-2-methyl-9-(4-methyl-1-piperazinyl)-6-oxo-1,2-dihydro-6H-pyrrolo[3,2,1-ij]quinoline-5-carboxylic acid]	–	–	–	–	–	–	–	–	–	–	MIC (A.calcoaceticus Ac-54; in vitro, listed as A): 0.1 µg/mL (≈ 0.29 µM); MIC (E.coli NIHJ JC-2; in vitro, listed as A): 0.05 µg/mL (≈ 0.145 µM); MIC (E.facalis ATCC-21212; listed as A): 0.78 µg/mL (≈ 2.26 µM); MIC (K.pneumoniae NCTC-9632; in vitro, listed as A): 0.05 µg/mL (≈ 0.145 µM); MIC (M.morganii IID Kono; listed as A): 0.05 µg/mL (≈ 0.145 µM); MIC (P.aeruginosa ATCC-10145; in vitro, listed as A): 1.56 µg/mL (≈ 4.52 µM); MIC (P.aeruginosa E-2; in vitro, listed as A): 0.78 µg/mL (≈ 2.26 µM); MIC (P.mirabilis ATCC-29906; in vitro, listed as A): 0.2 µg/mL (≈ 0.579 µM); MIC (S.aureus FDA209P; listed as A): 0.1 µg/mL (≈ 0.29 µM); MIC (S.marcoscons IFO-12648; listed as A): 0.05 µg/mL (≈ 0.145 µM)
CC1CN(c2c(F)cc3c(=O)c(C(=O)O)cn4c3c2CC4C)CCN1.Cl (racemic) [Example 10, (±)-8-fluoro-2-methyl-9-(3-methyl-1-piperazinyl)-6-oxo-1,2-dihydro-6H-pyrrolo[3,2,1-ij]quinoline-5-carboxylic acid hydrochloride]	–	–	–	–	–	–	–	–	–	–	solubility (physchem): 152 mg/mL
CC1CN(c2c(F)cc3c(=O)c(C(=O)O)cn4c3c2CC4C)CCN1.Cl (single isomer, unassigned; (-)) [Reference Example 2, (-)-8-fluoro-2-methyl-9-(3-methyl-1-piperazinyl)-6-oxo-1,2-dihydro-6H-pyrrolo[3,2,1-ij]quinoline-5-carboxylic acid hydrochloride, reference compound]	–	–	–	–	–	–	–	–	–	–	Ratio of dissolution to water: 167 mg/mL
CC1Cc2c(N3CCN(C)CC3)c(F)cc3c(=O)c(C(=O)O)cn1c23 (single isomer, unassigned; (-)) [Reference Example 1, (-)-8-fluoro-2-methyl-9-(4-methyl-1-piperazinyl)-6-oxo-1,2-dihydro-6H-pyrrolo[3,2,1-ij]quinoline-5-carboxylic acid, reference compound]	–	–	–	–	–	–	–	–	–	–	MIC (A.calcoaceticus Ac-54; in vitro, listed as F): 3.13 µg/mL (≈ 9.06 µM); MIC (E.coli NIHJ JC-2; in vitro, listed as F): 0.78 µg/mL (≈ 2.26 µM); MIC (E.facalis ATCC-21212; listed as F): 100 µg/mL (≈ 290 µM); MIC (K.pneumoniae NCTC-9632; in vitro, listed as F): 0.78 µg/mL (≈ 2.26 µM); MIC (M.morganii IID Kono; listed as F): 0.78 µg/mL (≈ 2.26 µM); MIC (P.aeruginosa ATCC-10145; in vitro, listed as F): 25 µg/mL (≈ 72.4 µM); MIC (P.aeruginosa E-2; in vitro, listed as F): 12.5 µg/mL (≈ 36.2 µM); MIC (P.mirabilis ATCC-29906; in vitro, listed as F): 3.13 µg/mL (≈ 9.06 µM); MIC (S.aureus FDA209P; listed as F): 3.13 µg/mL (≈ 9.06 µM); MIC (S.marcoscons IFO-12648; listed as F): 0.78 µg/mL (≈ 2.26 µM)
CC1COc2c(N3CCN(C)CC3)c(F)cc3c(=O)c(C(=O)O)cn1c23 (stereo not drawn) [Test Compound G, S-(-)-9-fluoro-3-methyl-10-(4-methyl-1-piperazinyl)-7-oxo-2,3-dihydro-7H-pyrido[1,2,3-de][1,4]benzoxazine-6-carboxylic acid, reference compound]	0.39 (≈ 1.08 µM)	0.1 (≈ 0.277 µM)	3.13 (≈ 8.66 µM)	0.1 (≈ 0.277 µM)	0.1 (≈ 0.277 µM)	3.13 (≈ 8.66 µM)	1.5 (≈ 4.15 µM)	0.39 (≈ 1.08 µM)	0.2 (≈ 0.553 µM)	0.2 (≈ 0.553 µM)	–

Source: patent EP0390135A1, “Pyrroloquinoline derivatives, antimicrobial agents using the same and process for preparing the same” (OTSUKA PHARMACEUTICAL CO., LTD., priority 1989, dated 1990)
